Test results from US20030165575A1, “Methods and compositions for treatment and diagnosis of alzheimer disease and other disorders” (Research Foundation for Mental Hygeine, Inc., priority 1994, published 2003).

Assays:
PP-2B = target: T1, PP-2B (Bos taurus, UniProt P48452); experiment: Effect of effectors on dephosphorylation of AD P-tau by PP-2B (immunoblot); assay type: biochemical, bovine; conditions: for Activity of PP-2B towards AD P-tau with divalent cation in the presence of Ca2+ and calmodulin: 1.0 mM CaCl2, 1.0 μM calmodulin plus 1.0 mM NiCl2, 1.0 mM MnCl2 or 10 mM MgCl2; for Activity of PP-2B towards AD P-tau with divalent cation in the presence of Ca2+ and calmodulin / Magnitude of dephosphorylation of AD P-tau by PP-2B with the cation alone compared to inclusion of Ca2+ and calmodulin: Tau-1 immunoblot; for Magnitude of dephosphorylation of AD P-tau by PP-2B with the cation alone compared to inclusion of Ca2+ and calmodulin: 1.0 mM MnCl2 or 1.0 mM NiCl2 alone; for Concentration of metal ion for maximal dephosphorylation of AD P-tau by PP-2B / Concentration of metal ion that activated the dephosphorylation of AD P-tau by PP-2B: in the presence of 1.0 mM Ca2+ and 1.0 μM calmodulin
T1 construct: PP-2B (holoezyme) was purified from bovine brain according to the method of Sharma et al; from tissue; host or cells: bovine brain
Experimental: Rabbit skeletal muscle PP-1 was purchased from Upstate Bioteehnology Inc., Lake Placid, N.Y. Rat brain PP-2A1 and PP-2A2 were kindly provided by Dr. S. Jaspers of University of Massachusetts. […] Phosphorylase and calmodulin were purchased from Sigma, St. Louis, Mo. […] Alkaline phosphatase-conjugated goat anti-mouse and anti-rabbit IgG were purchased from Bio-Rad, Hercules, Calif.
Unless otherwise stated, dephosphorylation of AD P-tau was carried out at 30° C. in 50 mM Tris, pH 7.0, 10 mM β-mecaptoethanol, 0.1 mg/ml BSA, 50 μg/ml AD P-tau and PP-1 PP-2A or PP-2B. The reaction was started by addition of enzyme and stopped by addition of 5 volumes of cold acetone. The precipitated protein samples were dissolved in sodium dodecyl sulfate-polyacrylamide gel electrophoresis (SDS-PAGE) sample buffer and heated at 95° C. for 4 min, followed by 10% SDS-PAGE. […] Antiserum 92e is a phosphorylation-independent antibody which recognizes both AD P-tau and normal tau.

PP-2C = PP-2C activity with [32P]phosphorylase kinase as substrate; assay type: biochemical, bovine; conditions: no activity detected in the absence of Mg2+ or Mn2+
Experimental: (§1) For PP-2B and PP-2C activities, MnCl2 was substituted by 1.0 mM CaCl2 and 10 μM calmodulin, and 10 mM MgCl2, respectively.

PP-2A1 [1] = target: T2, PP-2A1 (Rattus norvegicus, UniProt P63331); experiment: Effect of Mn2+, Mg2+ and polylysine on dephosphorylation of AD P-tau by PP-2A1; assay type: biochemical; conditions: 2.0 mM MnCl2, 2.0 mM MgCl2 or 10 μM polylysine versus 1.0 mM EDTA; Tau-1 immunoblot
T2 construct: PP-2A1 and PP-2A2 were purified from rat brain basically as described by Cohen et al; tissue gift of Dr. S. Jaspers, University of Massachusetts; host or cells: rat brain
Source text: (§2) Phosphorylase, calmodulin, and poly-L-lysine (molecular weight 4,000-15,000) were purchased from Sigma, St. Louis, Mo. […] L. 1. Binder, University of Alabama, Birmingham, Ala.; A. Van de Voorde, Innogenetics, Industriepark Zwijinaarde, Belgium; and S. Greenberg, Burke Medical Research Institute, White Plains, N.Y., respectively. SMI33, SMI31, SMI34, goat anti-mouse IgG and peroxidase-anti-peroxidase complex were purchased from Sternberger Monoclonals Inc., Baltimore, Md. Alkaline phosphatase-conjugated goat anti-mouse and anti-rabbit IgG were purchased from Bio-Rad, Hercules, Calif.
(§3) In some experiments, Mn^2+ in the reaction mixture was replaced by other effectors (see Figure legends). In the reaction mixture for PP-2B, MnCl2 was substituted with-1.0 mM NiCl2, 1.0 mM CaCl2 and 1.0 μM calmodulin. The reaction was started by the addition of enzymes. After appropriate incubation times (see Figure legends), reactions were stopped by the addition of 5 volumes of cold acetone to precipitate proteins. Dephosphorylation was monitored by immunoblotting with the phosphorylation-dependent antibodies described below.
(§4) Res. Commun. […] Antibody AT8 was used at a concentration of 2.0 μg/ml. […] The intensity of immunostaining of-some blots with Tau-1 was scanned by using a Shimadzu dual-wavelength flying-spot scanner.

PP-2A2 [2] = target: T3, PP-2A2 (Rattus norvegicus, UniProt P63331); experiment: Effect of Mn2+, Mg2+ and polylysine on dephosphorylation of AD P-tau by PP-2A2; assay type: biochemical; parameters: PP-2A1 and PP-2A2 were purified from rat brain basically as described by Cohen et al; tissue gift of Dr. S. Jaspers, University of Massachusetts; host or cells: rat brain; conditions: 2.0 mM MnCl2, 2.0 mM MgCl2 or 10 μM polylysine versus 1.0 mM EDTA; Tau-1 immunoblot
Source text: as §2, §3, §4

PP-1 [3] = experiment: Effect of effectors on dephosphorylation of AD P-tau by PP-1 (immunoblot); assay type: biochemical, rabbit; conditions: for Effect on dephosphorylation of AD P-tau by PP-1: 1.0 mM Mn2+ or 10 mM Mg2+ versus 1.0 mM EDTA, PHF-1 immunoblot (Ser-396)
Experimental: Unless otherwise stated, dephosphorylation of AD P-tau was carried out at 30° C. in 50 mM Tris, pH 7.0, 10 mM β-mecaptoethanol, 0.1 mg/ml BSA, 50 μg/ml AD P-tau and PP-1, PP-2B or PP-2C. In some experiments, several effectors were added in the reaction mixture (see Results section). The reaction was started by addition of the enzyme. After appropriate incubation times (see Figure legends), reactions were stopped by addition of 5 volumes of cold acetone to precipitate proteins. The precipitated protein samples were dissolved in SDS-PAGE sample buffer (60 mM Tris-HCl, […], 3% SDS, 5% β-mercaptoethanol, 10% glycerol and 0.05% bromophenol blue) and heated at 95° C. for 4 min, followed by 10% SDS-PAGE.

PP-1 [4] = experiment: PP-1 activity with [32P]phosphorylase kinase as substrate; assay type: biochemical, rabbit; conditions: 1.0 mM Mn2+ or 10 mM Mg2+
Experimental: as §1

PP-2A1 [5] = target: T2, PP-2A1; experiment: PP-2A1 activity with [32P]phosphorylase as substrate; assay type: biochemical; conditions: data not shown
PP-2A = experiment: Effect of effectors on dephosphorylation of AD P-tau by PP-2A (immunoblot); assay type: biochemical, rat
Source text: as §2, §3, §4

PP-2A2 [6] = target: T3, PP-2A2; conditions: data not shown

T3 sequence (P63331 whole entry): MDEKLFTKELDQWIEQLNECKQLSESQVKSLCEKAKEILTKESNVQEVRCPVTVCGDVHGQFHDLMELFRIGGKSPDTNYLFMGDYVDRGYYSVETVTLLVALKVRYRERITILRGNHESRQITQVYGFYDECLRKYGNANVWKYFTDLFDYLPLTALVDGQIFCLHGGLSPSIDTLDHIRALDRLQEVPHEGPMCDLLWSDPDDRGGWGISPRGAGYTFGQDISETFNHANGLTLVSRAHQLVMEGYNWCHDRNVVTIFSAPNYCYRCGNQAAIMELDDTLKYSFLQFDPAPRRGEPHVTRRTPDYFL
T3 sequence (Q5XI34 1-589 partner): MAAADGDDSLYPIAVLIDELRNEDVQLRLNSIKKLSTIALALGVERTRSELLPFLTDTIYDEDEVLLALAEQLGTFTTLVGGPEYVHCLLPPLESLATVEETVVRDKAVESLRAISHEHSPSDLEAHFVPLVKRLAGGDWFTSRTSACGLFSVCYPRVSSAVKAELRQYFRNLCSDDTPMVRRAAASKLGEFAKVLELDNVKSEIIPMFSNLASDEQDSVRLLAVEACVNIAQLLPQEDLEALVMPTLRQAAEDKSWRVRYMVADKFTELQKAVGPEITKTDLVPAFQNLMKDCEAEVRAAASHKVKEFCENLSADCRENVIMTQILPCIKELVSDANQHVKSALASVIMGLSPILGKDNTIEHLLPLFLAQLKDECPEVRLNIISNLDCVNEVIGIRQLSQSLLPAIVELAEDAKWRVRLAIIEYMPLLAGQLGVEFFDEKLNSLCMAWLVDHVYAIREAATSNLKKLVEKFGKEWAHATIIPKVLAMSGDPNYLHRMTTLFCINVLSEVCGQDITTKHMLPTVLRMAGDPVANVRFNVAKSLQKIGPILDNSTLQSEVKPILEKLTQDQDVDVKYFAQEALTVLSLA
T2 sequence (P63331 whole entry): as the sequence (P63331 whole entry) above
T2 sequence (Q5XI34 1-589 partner): as the sequence (Q5XI34 1-589 partner) above
T2 sequence (P36876 whole entry partner): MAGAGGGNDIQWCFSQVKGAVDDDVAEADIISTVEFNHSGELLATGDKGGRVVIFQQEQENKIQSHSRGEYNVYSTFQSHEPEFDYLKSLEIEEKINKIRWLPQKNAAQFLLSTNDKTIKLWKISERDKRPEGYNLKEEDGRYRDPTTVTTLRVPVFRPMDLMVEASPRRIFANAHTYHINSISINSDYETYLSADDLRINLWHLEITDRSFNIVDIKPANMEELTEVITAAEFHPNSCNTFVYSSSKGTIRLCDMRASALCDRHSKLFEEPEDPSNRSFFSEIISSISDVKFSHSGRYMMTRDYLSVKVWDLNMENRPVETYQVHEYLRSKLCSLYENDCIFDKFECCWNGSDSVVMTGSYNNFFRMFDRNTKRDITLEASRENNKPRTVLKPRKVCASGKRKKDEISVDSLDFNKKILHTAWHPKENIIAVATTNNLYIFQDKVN

Compound | Metal dependence of PP-2C activity with [32P]phosphorylase kinase as substrate (PP-2C) | Activity of PP-2B towards AD P-tau with divalent cation in the presence of Ca2+ and calmodulin (PP-2B) | Effect on activity of PP-2A1 towards AD P-tau (PP-2A1 [1]) | Effect on activity of PP-2A2 towards AD P-tau (PP-2A2 [2]) | Effect on dephosphorylation of AD P-tau by PP-1 (PP-1 [3]) | Effect on PP-1 activity with [32P]phosphorylase kinase as substrate (PP-1 [4]) | Effect on AD P-tau dephosphorylation by PP-2B (PP-2B) | Magnitude of dephosphorylation of AD P-tau by PP-2B with the cation alone compared to inclusion of Ca2+ and calmodulin (PP-2B) | Concentration of metal ion for maximal dephosphorylation of AD P-tau by PP-2B (PP-2B) | Concentration of metal ion that activated the dephosphorylation of AD P-tau by PP-2B (PP-2B) | Effect on PP-2A1 activity with [32P]phosphorylase as substrate (PP-2A1 [5]) | also measured
[Ca+2] [Ca^2+] |  |  |  |  |  |  |  |  |  |  |  | Dephosphorylation of tau by PP-2B in the presence of Ca2+ and calmodulin alone (PP-2B; 1.0 mM CaCl2 and 1.0 μM calmodulin, no other cation): no apparent dephosphorylation
[Mg+2] [Mg^2+, reference compound] | dependent | lower | no detectable effect | no detectable effect | inhibited | inhibited |  |  |  |  |  | 
[Mn+2] [Mn^2+, manganese] | dependent | lower | markedly stimulated | markedly stimulated | strongly activated | activated | ↑ ↑ | lower | 100 µM | 10 FM | almost no effect | Effect on AD P-tau dephosphorylation by PP-2A (PP-2A): ↑ ↑; Effect on AD P-tau dephosphorylation by PP-1 (PP-1 [3]): ↑ ↑; Concentration at which activation of AD P-tau dephosphorylation by PP-1 reached maximum (PP-1 [3]; data not shown): about 100 μM; Concentration at which activation of AD P-tau dephosphorylation by PP-1 was observed (PP-1 [3]; data not shown): 10 µM; Effect on PP-2A2 activity with [32P]phosphorylase as substrate (PP-2A2 [6]): stimulated PP-2A2 much more strongly than polylysine did
[Ni+2] [Ni^2+] |  | highest activity |  |  |  |  | ↑ ↑ | lower | 100 µM | 10 FM |  | 
C=C1[C@@H](O)[C@@H]2O[C@]3(CC[C@H](/C=C/[C@@H](C)[C@@H]4CC(C)=C[C@@]5(O[C@H](C[C@@](C)(O)C(=O)O)CC[C@H]5O)O4)O3)CC[C@H]2O[C@@H]1[C@@H](O)C[C@H](C)[C@H]1O[C@@]2(CCCCO2)CC[C@H]1C [okadaic acid, reference compound] |  |  |  |  |  |  |  |  |  |  |  | Unmasking of Tau-1 epitope of AD P-tau by PP-2A in the presence of the inhibitor (PP-2A; 1.0 μM okadaic acid, 5.0 U/ml PP-2A2, 30° C., 60 min): did not unmask Tau-1 epitope
poly-L-lysine [Polylysine] |  |  | strongly activated | only slightly activated |  |  |  |  |  |  | slightly stimulated | 
